According to PubChem BioAssay AID330 (DTP/NCI, 2004):
Where “and” joins values, the source holds several entries; their conditions need not be identical. Identical values can stand only once. Toxic doses and inconclusive results are not listed.

Tested on: P388 leukemia ip, CD2F1 mice, survival T/C
Assay: NCI In Vivo Anticancer Drug Screen. Data for tumor model P388 Leukemia (intraperitoneal) in CD2F1 (CDF1) mice
Details: endpoint: median survival time, higher = longer survival
Procedure, shortened: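 Mice carrying the transplanted tumor received test compound or vehicle. Survival was recorded in each group, and the value is the treated-group measurement divided by that of the vehicle-treated control group.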

[1] = dose: 50.0 mg/kg/injection, schedule: Q01DX005 (ip), vehicle: Klucel (hydroxypropylcellulose) (HPC)
[2] = dose: 100.0 mg/kg/injection, schedule: Q01DX005 (ip), vehicle: Klucel (hydroxypropylcellulose) (HPC)
[3] = dose: 50.0 mg/kg/injection, schedule: Q01DX009 (ip), vehicle: saline with Tween-80
[4] = dose: 100.0 mg/kg/injection, schedule: Q01DX009 (ip), vehicle: saline with Tween-80
[5] = dose: 200.0 mg/kg/injection, schedule: Q01DX009 (ip), vehicle: saline with Tween-80
[6] = dose: 50.0 mg/kg/injection, schedule: Q01DX005 (ip), vehicle: saline with Tween-80
[7] = dose: 100.0 mg/kg/injection, schedule: Q01DX005 (ip), vehicle: saline with Tween-80
[8] = dose: 200.0 mg/kg/injection, schedule: Q01DX005 (ip), vehicle: saline with Tween-80
[9] = dose: 12.5 mg/kg/injection, schedule: Q01DX005 (ip), vehicle: saline
[10] = dose: 25.0 mg/kg/injection, schedule: Q01DX005 (ip), vehicle: saline
[11] = dose: 50.0 mg/kg/injection, schedule: Q01DX005 (ip), vehicle: saline

CCOC(=O)NOP(=O)(N1CC1(C)C)N1CC1(C)C (stereo not drawn)
T/C (dose: 62.5 mg/kg/injection, schedule: Q01DX001 (ip), vehicle: saline + alcohol): 107 % of control | T/C (dose: 125.0 mg/kg/injection, schedule: Q01DX001 (ip), vehicle: saline + alcohol): 117 % of control | T/C (dose: 250.0 mg/kg/injection, schedule: Q01DX001 (ip), vehicle: other): 150 % of control | T/C (dose: 250.0 mg/kg/injection, schedule: Q01DX001 (ip), vehicle: saline + alcohol): 120 % of control | T/C (dose: 500.0 mg/kg/injection, schedule: Q01DX001 (ip), vehicle: other): 163 % of control | T/C (dose: 500.0 mg/kg/injection, schedule: Q01DX001 (ip), vehicle: saline + alcohol): 150 % of control

CCCCCCCCSC1=CC(=O)C(OC)=C(OC)C1=O
T/C (dose: 4.0 mg/kg/injection, schedule: Q01DX009 (ip), vehicle: Klucel (hydroxypropylcellulose) (HPC)): 92 % of control | T/C (dose: 8.0 mg/kg/injection, schedule: Q01DX009 (ip), vehicle: Klucel (hydroxypropylcellulose) (HPC)): 95 % of control

CC(C)C(NC(=O)OCc1ccccc1)C(=O)N(C(=O)NC1CCCCC1)C1CCCCC1 (stereo not drawn)
T/C [1]: 100 % of control | T/C [2]: 95 % of control | T/C (dose: 200.0 mg/kg/injection, schedule: Q01DX005 (ip), vehicle: Klucel (hydroxypropylcellulose) (HPC)): 98 % of control

O=C(O)CSC(=S)Nc1ccccn1
T/C [3]: 94 % of control | T/C [4]: 90 % of control | T/C [5]: 100 % of control

O=C(O)c1ccc2c3c(n[se]c13)-c1ccccc1C2=O
T/C [1]: 99 % of control | T/C [2]: 103 % of control

Nc1ccc2cc(S(=O)(=O)O)cc(O)c2c1N=Nc1ccc(NC(=O)c2ccc(C(=O)Nc3ccc(N=Nc4c(N)ccc5cc(S(=O)(=O)O)cc(O)c45)c(S(=O)(=O)O)c3)cc2)cc1S(=O)(=O)O
T/C (dose: 12.5 mg/kg/injection, schedule: Q01DX005 (ip), vehicle: saline with Tween-80): 101 % of control | T/C (dose: 25.0 mg/kg/injection, schedule: Q01DX005 (ip), vehicle: saline with Tween-80): 96 % of control | T/C [6]: 98 % of control

NC1CN(C(COCc2ccccc2)c2ccc(OCc3ccccc3)cc2)C1=O (stereo not drawn)
T/C [6]: 100 % of control | T/C [7]: 103 % of control | T/C [8]: 97 % of control

CCc1cnc2ccccc2c1/C=C/c1ccc(N(C)C)cc1
T/C [3]: 98 % of control | T/C [4]: 105 % of control | T/C [5]: 103 % of control

Nc1nc(N)c2c(Cl)c(CNc3ccc(Cl)c(Cl)c3)ccc2n1
T/C (dose: 0.18 mg/kg/injection, schedule: Q01DX009 (ip), vehicle: saline with Tween-80): 97 % of control | T/C (dose: 0.37 mg/kg/injection, schedule: Q01DX009 (ip), vehicle: saline with Tween-80): 102 % of control | T/C (dose: 0.75 mg/kg/injection, schedule: Q01DX009 (ip), vehicle: saline with Tween-80): 99 % of control | T/C (dose: 1.5 mg/kg/injection, schedule: Q01DX009 (ip), vehicle: saline with Tween-80): 99 % of control

C=C1CC2(CC[N+](Cc3ccccc3)(Cc3ccccc3)CC2)OC1=O
T/C [9]: 103 % of control | T/C [10]: 103 % of control | T/C [11]: 102 % of control and 97 % of control

CC1CCC(SC2CC(=O)CCC2=O)CC1 (stereo not drawn)
T/C [6]: 104 % of control and 115 % of control | T/C [7]: 106 % of control and 115 % of control | T/C [8]: 122 % of control

N#C/C(=C\c1ccc(Cl)cc1Cl)C(=O)N/N=C/c1ccc(Cl)cc1Cl
T/C (dose: 100.0 mg/kg/injection, schedule: Q04DX003 (ip), vehicle: saline): 95 % of control | T/C (dose: 200.0 mg/kg/injection, schedule: Q04DX003 (ip), vehicle: saline): 97 % of control | T/C (dose: 400.0 mg/kg/injection, schedule: Q04DX003 (ip), vehicle: saline): 90 % of control

O=C(O)c1cccc(/C=C/c2ccccc2)c1
T/C [6]: 107 % of control | T/C [7]: 105 % of control | T/C [8]: 114 % of control

CCCOCn1cc(F)c(=O)n(COCCC)c1=O
T/C (dose: 5.62 mg/kg/injection, schedule: Q04DX002 (ip), vehicle: water): 95 % of control | T/C (dose: 11.25 mg/kg/injection, schedule: Q04DX002 (ip), vehicle: water): 93 % of control | T/C (dose: 22.5 mg/kg/injection, schedule: Q04DX002 (ip), vehicle: water): 92 % of control | T/C (dose: 45.0 mg/kg/injection, schedule: Q04DX002 (ip), vehicle: water): 92 % of control | T/C (dose: 90.0 mg/kg/injection, schedule: Q04DX002 (ip), vehicle: water): 91 % of control | T/C (dose: 180.0 mg/kg/injection, schedule: Q04DX002 (ip), vehicle: water): 95 % of control

CC(=O)OCC1=C(C)CC(C(C)C2CCC3C4CC5OC56C(OC(C)=O)C(N5CC5)CC(=O)C6(C)C4CCC23C)OC1=O (stereo not drawn)
T/C (dose: 3.12 mg/kg/injection, schedule: Q01DX005 (ip), vehicle: Klucel (hydroxypropylcellulose) (HPC)): 100 % of control | T/C (dose: 6.25 mg/kg/injection, schedule: Q01DX005 (ip), vehicle: Klucel (hydroxypropylcellulose) (HPC)): 98 % of control | T/C (dose: 12.5 mg/kg/injection, schedule: Q01DX005 (ip), vehicle: Klucel (hydroxypropylcellulose) (HPC)): 104 % of control | T/C (dose: 25.0 mg/kg/injection, schedule: Q01DX005 (ip), vehicle: Klucel (hydroxypropylcellulose) (HPC)): 112 % of control | T/C [1]: 110 % of control

O=C1OC2C(COC(=O)c3cc(O)c(O)c(O)c3)OC(OC(=O)c3cc(O)c(O)c(O)c3)C(OC(=O)c3cc(O)c(O)c4c3C3C1=CC(=O)[C@](O)(O4)C3(O)O)C2OC(=O)c1cc(O)c(O)c(O)c1 (stereo partly drawn)
T/C (dose: 6.25 mg/kg/injection, schedule: Q01DX009 (ip), vehicle: saline): 98 % of control | T/C (dose: 12.5 mg/kg/injection, schedule: Q01DX009 (ip), vehicle: saline): 99 % of control | T/C (dose: 25.0 mg/kg/injection, schedule: Q01DX009 (ip), vehicle: saline): 98 % of control

COC(=O)c1noc2c1CSC1=C2CS(=O)(=O)c2ccccc21
T/C (dose: 60.0 mg/kg/injection, schedule: Q01DX005 (ip), vehicle: saline with Tween-80): 104 % of control | T/C (dose: 120.0 mg/kg/injection, schedule: Q01DX005 (ip), vehicle: saline with Tween-80): 104 % of control | T/C (dose: 240.0 mg/kg/injection, schedule: Q01DX005 (ip), vehicle: saline with Tween-80): 98 % of control

CCOC(OCC)c1c(Cl)cccc1Cl
T/C [4]: 118 % of control | T/C (dose: 100.0 mg/kg/injection, schedule: Q04DX003 (ip), vehicle: saline with Tween-80): 100 % of control | T/C [5]: 118 % of control | T/C (dose: 200.0 mg/kg/injection, schedule: Q04DX003 (ip), vehicle: saline with Tween-80): 100 % of control | T/C (dose: 400.0 mg/kg/injection, schedule: Q04DX003 (ip), vehicle: saline with Tween-80): 90 % of control

CC(C)(C)c1cc(/C=N\O)cc(C(C)(C)C)c1O
T/C (dose: 50.0 mg/kg/injection, schedule: Q01DX009 (ip), vehicle: saline): 98 % of control | T/C (dose: 100.0 mg/kg/injection, schedule: Q01DX009 (ip), vehicle: saline): 107 % of control | T/C (dose: 200.0 mg/kg/injection, schedule: Q01DX009 (ip), vehicle: saline): 107 % of control

COC(=O)C1CC(C(=O)c2ccccc2)N2C=CC=C(C#N)C12 (stereo not drawn)
T/C (dose: 4.38 mg/kg/injection, schedule: Q01DX005 (ip), vehicle: Klucel (hydroxypropylcellulose) (HPC)): 101 % of control | T/C (dose: 8.75 mg/kg/injection, schedule: Q01DX005 (ip), vehicle: Klucel (hydroxypropylcellulose) (HPC)): 91 % of control | T/C (dose: 17.5 mg/kg/injection, schedule: Q01DX005 (ip), vehicle: Klucel (hydroxypropylcellulose) (HPC)): 101 % of control

CCOc1ccn(C2C=CC(=O)O2)c(=O)n1 (stereo not drawn)
T/C (dose: 6.25 mg/kg/injection, schedule: Q01DX005 (ip), vehicle: saline): 102 % of control and 105 % of control | T/C [9]: 110 % of control and 112 % of control | T/C [10]: 111 % of control and 118 % of control | T/C [11]: 118 % of control and 120 % of control

CCN(CC)CCOCC1CC2C(C=C1C)C2(C)C (stereo not drawn)
T/C [11]: 107 % of control | T/C (dose: 100.0 mg/kg/injection, schedule: Q01DX005 (ip), vehicle: saline): 98 % of control

Cc1nnsc1-c1nnc2sc(C(F)(F)F)nn12
T/C (dose: 50.0 mg/kg/injection, schedule: Q04DX002 (ip), vehicle: Klucel (hydroxypropylcellulose) (HPC)): 100 % of control | T/C (dose: 100.0 mg/kg/injection, schedule: Q04DX002 (ip), vehicle: Klucel (hydroxypropylcellulose) (HPC)): 100 % of control | T/C (dose: 200.0 mg/kg/injection, schedule: Q04DX002 (ip), vehicle: Klucel (hydroxypropylcellulose) (HPC)): 100 % of control

CCC(c1ccc(OC)cc1)C(NC(=S)NCc1ccccc1)c1ccc(OC)cc1 (stereo not drawn)
T/C (dose: 100.0 mg/kg/injection, schedule: Q04DX002 (ip), vehicle: saline with Tween-80): 94 % of control | T/C (dose: 200.0 mg/kg/injection, schedule: Q04DX002 (ip), vehicle: saline with Tween-80): 91 % of control

COc1ccc(-n2nc3c(c2-c2cccnc2)CCCc2ccccc2-3)cc1
T/C [6]: 95 % of control | T/C [7]: 106 % of control | T/C [8]: 101 % of control
